The record followed here is patent US11078198B2 (BRISTOL-MYERS SQUIBB COMPANY, priority 2017, dated 2021).

In this assay the target is T1, human FXR (Homo sapiens, UniProt Q96RI1).
T1 construct: expressed in transfected cells; host or cells: HEK293 cells stably carrying a 5xGal4-response-element firefly luciferase reporter, transiently transfected with pcDNA3.1-Gal4-FXR
T1 sequence (Q96RI1 262-486 limits assumed): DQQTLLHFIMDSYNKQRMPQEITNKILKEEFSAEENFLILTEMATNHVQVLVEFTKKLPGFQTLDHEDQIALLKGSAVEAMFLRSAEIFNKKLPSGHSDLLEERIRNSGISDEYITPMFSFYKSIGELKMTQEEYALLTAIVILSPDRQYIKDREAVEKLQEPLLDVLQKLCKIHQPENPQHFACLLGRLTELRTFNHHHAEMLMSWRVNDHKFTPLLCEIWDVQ
Put plainly: transient human FXR/Gal4-luciferase reporter assay. The class given is cell-based. The following applies: Gal4-hFXR transfected HEK293 reporter cells; relative to 8 μM GW-4064. The gist of the method: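 HEK293 cells stably carrying a 5×Gal4-response-element firefly luciferase reporter, transiently transfected overnight with a CMV-driven Gal4 DNA-binding domain/human FXR ligand-binding domain fusion.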
As a reminder, the EC50 is the concentration needed to bring the measured effect to its halfway point. Lower therefore signals greater potency. The compound `O=C(O)c1cc(OCCO)c2cc(N3CCC4(C=C(c5c(-c6c(Cl)cncc6Cl)noc5C5CC5)C4)CC3)ccc2n1` [Example 142, 6-(2-(5-Cyclopropyl-3-(3,5-dichloropyridin-4-yl)isoxazol-4-yl)-7-azaspiro[3.5]non-1-en-7-yl)-4-(2-hydroxyethoxy)quinoline-2-carboxylic acid] displayed an EC50 of 147 nM.

As to `O=C(O)c1cc(OCCO)c2cc(N3CCC4(C=C(c5c(-c6ccccc6C(F)(F)F)noc5C5CC5)C4)CC3)ccc2n1` [Example 143, 6-(2-(5-Cyclopropyl-3-(2-(trifluoromethyl)phenyl)isoxazol-4-yl)-7-azaspiro[3.5]non-1-en-7-yl)-4-(2-hydroxyethoxy)quinoline-2-carboxylic acid], a half-maximal response (EC50) required 159 nM.

Regarding `COc1cc(C(=O)O)nc2ccc(N3CCC4(C=C(c5c(-c6cccnc6C(F)(F)F)noc5C5CC5)C4)CC3)cc12` [Example 144, 6-(2-(5-Cyclopropyl-3-(2-(trifluoromethyl)pyridin-3-yl)isoxazol-4-yl)-7-azaspiro[3.5]non-1-en-7-yl)-4-methoxyquinoline-2-carboxylic acid], it took 156 nM to reach a half-maximal effect (EC50).

Compound `COc1cc(C(=O)O)nc2ccc(N3CCC4(C=C(c5c(-c6ncccc6Cl)noc5C5CC5)C4)CC3)cc12` [Example 145, 6-(2-(3-(3-Chloropyridin-2-yl)-5-cyclopropylisoxazol-4-yl)-7-azaspiro[3.5]non-1-en-7-yl)-4-methoxyquinoline-2-carboxylic acid] yielded a concentration for a half-maximal effect (EC50) of 160 nM.

With `COc1cc(C(=O)O)nc2ccc(N3CCC4(C=C(c5c(-c6cnccc6C(F)(F)F)noc5C5CC5)C4)CC3)cc12` [Example 146, 6-(2-(5-Cyclopropyl-3-(4-(trifluoromethyl)pyridin-3-yl)isoxazol-4-yl)-7-azaspiro[3.5]non-1-en-7-yl)-4-methoxyquinoline-2-carboxylic acid], the 50% effective concentration (EC50) came out at 185 nM.

The compound `COc1cc(C(=O)O)nc2ccc(N3CCC4(C=C(c5c(C6CCCCC6)noc5C5CC5)C4)CC3)cc12` [Example 147, 6-(2-(3-Cyclohexyl-5-cyclopropylisoxazol-4-yl)-7-azaspiro[3.5]non-1-en-7-yl)-4-methoxyquinoline-2-carboxylic acid] registered an EC50 of 1060 nM.

`CC(C)c1onc(-c2c(Cl)cccc2Cl)c1C1=CC2(CCN(c3ccc4cc(C(=O)O)nnc4c3)CC2)C1` [Example 148, 7-(2-(3-(2,6-Dichlorophenyl)-5-isopropylisoxazol-4-yl)-7-azaspiro[3.5]non-1-en-7-yl) cinnoline-3-carboxylic acid] registered a 50% effective concentration (EC50) of 548 nM.

The compound `O=C(O)c1ccc2cc(N3CCC4(C=C(c5c(-c6ccncc6Cl)noc5C5CC5)C4)CC3)ccc2n1` [Example 150, 6-(2-(3-(3-Chloropyridin-4-yl)-5-cyclopropylisoxazol-4-yl)-7-azaspiro[3.5]non-1-en-7-yl)quinoline-2-carboxylic acid] came in with an EC50 of 4350 nM.

For the compound `O=C(O)c1ccc2cc(N3CCC4(C=C(c5c(-c6c(F)cccc6F)noc5C5CC5)C4)CC3)ccc2n1` [Example 151, 6-(2-(5-Cyclopropyl-3-(2,6-difluorophenyl)isoxazol-4-yl)-7-azaspiro[3.5]non-1-en-7-yl)quinoline-2-carboxylic acid], the half-maximal effective concentration (EC50) came to 1990 nM.

With `O=C(O)c1ccc2cc(N3CCC4(C=C(c5c(-c6ncccc6Cl)noc5C5CC5)C4)CC3)ccc2n1` [Example 152, 6-(2-(3-(3-Chloropyridin-2-yl)-5-cyclopropylisoxazol-4-yl)-7-azaspiro[3.5]non-1-en-7-yl)quinoline-2-carboxylic acid], the EC50 was found to be 1630 nM.

Consider `O=C(O)c1ccc2cc(N3CCC4(C=C(c5c(-c6cccnc6C(F)(F)F)noc5C5CC5)C4)CC3)ccc2n1` [Example 153, 6-(2-(5-Cyclopropyl-3-(2-(trifluoromethyl)pyridin-3-yl)isoxazol-4-yl)-7-azaspiro[3.5]non-1-en-7-yl)quinoline-2-carboxylic acid], for which the EC50 worked out at 1280 nM.

`O=C(O)c1ccc2cc(N3CCC4(C=C(c5c(-c6cnccc6C(F)(F)F)noc5C5CC5)C4)CC3)ccc2n1` [Example 154, 6-(2-(5-Cyclopropyl-3-(4-(trifluoromethyl)pyridin-3-yl)isoxazol-4-yl)-7-azaspiro[3.5]non-1-en-7-yl)quinoline-2-carboxylic acid] displayed an EC50 of 554 nM.

Consider `O=C(O)c1ccc2cc(N3CCC4(C=C(c5c(-c6c(F)cccc6Cl)noc5C5CC5)C4)CC3)ccc2n1` [Example 156, 6-(2-(3-(2-Chloro-6-fluorophenyl)-5-cyclopropylisoxazol-4-yl)-7-azaspiro[3.5]non-1-en-7-yl)quinoline-2-carboxylic acid], for which the EC50 amounted to 326 nM.

Compound `Cc1cccc(Cl)c1-c1noc(C2CC2)c1C1=CC2(CCN(c3ccc4nc(C(=O)O)ccc4c3)CC2)C1` [Example 157, 6-(2-(3-(2-Chloro-6-methylphenyl)-5-cyclopropylisoxazol-4-yl)-7-azaspiro[3.5]non-1-en-7-yl)quinoline-2-carboxylic acid] had an EC50 of 223 nM. This EC50 and that of the compound before are within 1.5-fold of each other.

`O=C(O)c1cc2ccc(N3CCC4(C=C(c5c(-c6c(F)cccc6Cl)noc5C5CC5)C4)CC3)cc2cn1` [Example 158, 7-(2-(3-(2-Chloro-6-fluorophenyl)-5-cyclopropylisoxazol-4-yl)-7-azaspiro[3.5]non-1-en-7-yl)isoquinoline-3-carboxylic acid] displayed an EC50 of 459 nM. Against the preceding compound, the EC50 is about 2.1-fold higher.

In the case of `O=C(O)c1cc2ccc(N3CCC4(C=C(c5c(-c6ccccc6C(F)(F)F)noc5C5CC5)C4)CC3)cc2cn1` [Example 159, 7-(2-(5-Cyclopropyl-3-(2-(trifluoromethyl)phenyl)isoxazol-4-yl)-7-azaspiro[3.5]non-1-en-7-yl)isoquinoline-3-carboxylic acid], the EC50 amounted to 254 nM. Compared with the last compound, the EC50 is about 1.8-fold lower.

Consider `O=C(O)c1cc2ccc(N3CCC4(C=C(c5c(-c6cnccc6C(F)(F)F)noc5C5CC5)C4)CC3)cc2cn1` [Example 160, 7-(2-(5-Cyclopropyl-3-(4-(trifluoromethyl)pyridin-3-yl)isoxazol-4-yl)-7-azaspiro[3.5]non-1-en-7-yl)isoquinoline-3-carboxylic acid], for which it took 1610 nM to reach a half-maximal effect (EC50).

The compound `O=C(O)c1cc2ccc(N3CCC4(C=C(c5c(-c6ncccc6Cl)noc5C5CC5)C4)CC3)cc2cn1` [Example 161, 7-(2-(3-(3-Chloropyridin-2-yl)-5-cyclopropylisoxazol-4-yl)-7-azaspiro[3.5]non-1-en-7-yl) isoquinoline-3-carboxylic acid] displayed an EC50 of 2320 nM.

In turn, `O=C(O)c1cc2ccc(N3CCC4(C=C(c5c(-c6c(F)cccc6F)noc5C5CC5)C4)CC3)cc2cn1` [Example 162, 7-(2-(5-Cyclopropyl-3-(2,6-difluorophenyl)isoxazol-4-yl)-7-azaspiro[3.5]non-1-en-7-yl)isoquinoline-3-carboxylic acid] yielded a concentration for a half-maximal effect (EC50) of 2820 nM.

In turn, `O=C(O)c1cnc(N2CCC3(C=C(c4c(-c5ccccc5C(F)(F)F)noc4C4CC4)C3)CC2)cc1C(F)(F)F` [Example 163, 6-(2-(5-Cyclopropyl-3-(2-(trifluoromethyl)phenyl)isoxazol-4-yl)-7-azaspiro[3.5]non-1-en-7-yl)-4-(trifluoromethyl)nicotinic acid] displayed an EC50 of 344 nM.

In turn, `Cn1nc(C(=O)O)c2ccc(N3CCC4(C=C(c5c(-c6ccccc6C(F)(F)F)noc5C5CC5)C4)CC3)cc21` [Example 164, 6-(2-(5-Cyclopropyl-3-(2-(trifluoromethyl)phenyl)isoxazol-4-yl)-7-azaspiro[3.5]non-1-en-7-yl)-1-methyl-1H-indazole-3-carboxylic acid] returned an EC50 of 392 nM.

In turn, `Cn1nc(C(=O)O)c2ccc(N3CCC4(C=C(c5c(-c6ccccc6OC(F)(F)F)noc5C5CC5)C4)CC3)cc21` [Example 165, 6-(2-(5-Cyclopropyl-3-(2-(trifluoromethoxy)phenyl)isoxazol-4-yl)-7-azaspiro[3.5]non-1-en-7-yl)-1-methyl-1H-indazole-3-carboxylic acid] showed a concentration for a half-maximal effect (EC50) of 2980 nM.

Regarding `O=C(O)c1nc(C(F)(F)F)n2cc(N3CCC4(C=C(c5c(-c6ccccc6OC(F)(F)F)noc5C5CC5)C4)CC3)ccc12` [Example 166, 6-(2-(5-Cyclopropyl-3-(2-(trifluoromethoxy)phenyl)isoxazol-4-yl)-7-azaspiro[3.5]non-1-en-7-yl)-3-(trifluoromethyl)imidazo[1,5-a]pyridine-1-carboxylic acid], a half-maximal effect (EC50) was put at 494 nM.

In turn, `CCOc1cc(C(=O)O)nc2ccc(N3CCC4(C=C(c5c(C6CCCCC6)noc5C5CC5)C4)CC3)cc12` [Example 167, 6-(2-(3-Cyclohexyl-5-cyclopropylisoxazol-4-yl)-7-azaspiro[3.5]non-1-en-7-yl)-4-ethoxyquinoline-2-carboxylic acid] gave an EC50 of 3100 nM.

The compound `Cn1cc(C(=O)O)c2ccc(N3CCC4(C=C(c5c(C6CCCCC6)noc5C5CC5)C4)CC3)cc21` [Example 168, 6-(2-(3-Cyclohexyl-5-cyclopropylisoxazol-4-yl)-7-azaspiro[3.5]non-1-en-7-yl)-1-methyl-1H-indole-3-carboxylic acid] returned an EC50 of 3970 nM.

As for `Cc1cc(C(=O)O)nc(N2CCC3(C=C(c4c(-c5ccccc5C(F)(F)F)noc4C4CC4)C3)CC2)n1` [Example 169, 2-(2-(5-Cyclopropyl-3-(2-(trifluoromethyl)phenyl)isoxazol-4-yl)-7-azaspiro[3.5]non-1-en-7-yl)-6-methylpyrimidine-4-carboxylic acid], the concentration for a half-maximal effect (EC50) stood at 1300 nM.

`Cc1c(N2CCC3(C=C(c4c(-c5ccccc5C(F)(F)F)noc4C4CC4)C3)CC2)ccc2cc(C(=O)O)cnc12` [Example 170, 7-(2-(5-Cyclopropyl-3-(2-(trifluoromethyl)phenyl)isoxazol-4-yl)-7-azaspiro[3.5]non-1-en-7-yl)-8-methylquinoline-3-carboxylic acid] returned an EC50 of 1750 nM.
